“Also recorded” adds a separate entry of the source. Where no end group is shown, it is not given here.
Key:
human osteoclasts = test: Osteoassay: bone resorption by osteoclasts on Corning osteoassay plate; format: cell-based; details: for resorptive activity on corning osteoassay surface: 150 μM (C5); for bone resorption by osteoclasts / osteoclast activity (percentage resorption): Corning osteoassay plate, 1 uM-150 uM, M-CSF and RANKL, day 12
Description: (§1) Osteoclasts were generated in vitro by the modified method of Cody et al., 2011, using fresh human bone marrow aspirates. Briefly, bone marrow mononuclear cells (BMC) separated on a density gradient medium in SepMate tubes were resuspended in growth media (α-MEM with 10% FBS) and cultured for 3 days in T75 flask with 35 ng/mL M-CSF at 37° C. in a 5% CO2 incubator. For osteoclast differentiation experiments, 10^5 cells/well of BM monocytes-macrophage precursors seeded in a 24 well plate was treated with human M-CSF and RANKL, and media replenished with fresh cytokines every third day for two weeks.
10^5 BMCs per well in 24 well Corning osteoassay plate were treated with human M-CSF (10 ng/mL) and 10 ng/mL of human RANKL. Undifferentiated condition includes cells treated with M-CSF only. The treatment wells had both M-CSF and RANKL followed by addition of TRPV6 peptide antagonists SOR-C13 and SOR-C27 at concentrations range 1 μM-150 μM tested in triplicate wells, vehicle or PBS buffer in which the peptides are dissolved and the standard anti-resorbing agent, Zoledronate were included for the experiment. Replenishment with fresh media containing M-CSF, RANKL and SOR peptides in respective wells was carried out every third day. On day 12, cells in osteoplates were removed by incubating with 10% bleach for 10 minutes; wells were washed with distilled water three times and air-dried for 3-5 hrs. Osteoassay plate was scanned using ChemiDoc MP and area of resorption pits in each well was quantified using ImageJ 1.48v Software.
Experiments were done in triplicates for each condition and data presented as mean±SD. All statistical analyses were done using GraphPad Prism 6, one way ANOVA and Dunnett's multiple comparison test was used to determine significance between groups and P<0.05 is considered statistically significant.
The effect of C-terminal Soricidin peptides on osteoclast activity and bone resorption was examined using 24-well corning assay plates that have a 3D osteo surface that mimics in vivo bone for in vitro bone cell assays. The inorganic bone biomaterial surface in each well is capable of supporting the functional properties of osteogenic cells. Only osteoclasts, specialized cells expressing bone-resorbing enzymes such as TRAP, cathepsin K and collagenase, can resorb such an artificial osteosurface. Resorption of the osteosurface is evident from the resorption pits/trails made by the osteoclasts, and the extent of resorption was quantified. Furthermore, the percentage activity of TRAP, one of the enzymes involved in bone resorption, was determined in tandem with the resorption assay (FIG. 7c). The anti-resorptive potential of selective TRPV6 antagonist peptides, SOR-C13 and SOR-C27 at various concentrations was observed (FIGS. 7 and 8) was observed.

[1] = test system: Tartrate-Resistant Acid Phosphatase (TRAP) in osteoclasts; test: TRAP enzyme activity in conditioned media of osteoassay wells; format: cell-based, human; details: relative to controls
Description: Osteoclasts were fixed and stained for tartrate-resistant acid phosphatase (TRAP) using the leukocyte acid phosphatase kit (Sigma-Aldrich) according to the manufacturer's protocol. Images were acquired in EVOS brightfield microscope. To visualize actin ring formation in osteoclasts, tetramethyl rhodamine-phalloidin (Life Technologies Inc.) staining was done for 1 hour. The cell nuclei were counterstained with 1 μg/ml Hoechst 33342 (Sigma-Aldrich) in phosphate buffered saline for 5 minute. Images were acquired in EVOS fluorescence microscope. TRAP enzyme activity was measured at 37° C. with a substrate buffer (125 mg/ml Naphthol AS-BI phosphoric acid in diazotized fast garnet base chemical solution, Sigma-Aldrich) at 560 nm.
(§2) 10^5 BMCs per well in 24 well Corning osteoassay plate were treated with human M-CSF (10 ng/mL) and 10 ng/mL of human RANKL. […] Osteoassay plate was scanned using ChemiDoc MP and area of resorption pits in each well was quantified using ImageJ 1.48v Software.
(§3) The effect of C-terminal Soricidin peptides on osteoclast activity and bone resorption was examined using 24-well corning assay plates that have a 3D osteo surface that mimics in vivo bone for in vitro bone cell assays. […] Resorption of the osteosurface is evident from the resorption pits/trails made by the osteoclasts, and the extent of resorption was quantified. […]

[2] = test system: osteoclast differentiation; test: Osteoclast differentiation from bone marrow mononuclear cells (M-CSF and RANKL); format: cell-based, human; details: 150 μM (C5)
Description: as §1, §2
as §3, with “quantified. Furthermore, the percentage activity of TRAP, one of the enzymes involved in bone resorption, was determined in tandem with the resorption assay (FIG. 7c).” for “quantified.”

KMM-1 cells = test: 48 hr peptide treatment, myeloma cell growth (KMM-1); format: cell-based, human; details: 1 uM-500 uM
Description: C1=1 uM, C2=10 uM, C3=50 uM, C4=100 uM, C5=150 uM, C6=250 uM, C7=300 uM, C8=400 uM, C9=500 uM.
(§4) The expression of TRPV6 protein was also observed in human myeloma cells by immunohistochemistry on myeloma bone sections (FIG. 1C) and in myeloma cell lines by western blotting (FIG. 9). Moreover, the growth inhibitory potential of SOR-C13 and SOR-C27 was determined using human myeloma cell lines U266 and KMM-1 (FIGS. 10 and 11). There exists a reciprocal relationship between myeloma cells and osteoclasts in the bone marrow milieu where myeloma cells secrete many factors that promote osteoclast activity, and in turn osteoclasts induce myeloma cell growth and survival.

U266 cells = test: 48 hr peptide treatment, myeloma cell growth (U266); format: cell-based, human; details: 1 uM-500 uM
Description: C1=1 uM, C2=10 uM, C3=50 uM, C4=100 uM, C5=150 uM, C6=250 uM, C7=400 uM, C8=500 uM.
as §4

[3] = test system: two ovarian cancer cell lines; details: cited from earlier work
[4] = in vivo; cited from earlier work

Row | Substance | resorptive activity on corning osteoassay surface (human osteoclasts) | bone resorption by osteoclasts / osteoclast activity (percentage resorption) (human osteoclasts) | TRAP enzyme activity [1] | osteoclast differentiation in vitro [2] | cell growth (KMM-1 cells) | cell growth (U266 cells) | calcium uptake [3] | paralysis [4]
1 | EGKLSSNDTEGGLCKEFLHPSKVDLPR [SOR-C27, peptide corresponding to the C-terminal end of soricidin; TRPV6 peptide antagonist] | significantly reduced their resorptive activity | dose-dependent Inhibition of osteoclast activity; also recorded: dose-dependent decrease in bone resorption | decrease in TRAP enzyme activity relative to controls | inhibited osteoclast differentiation | dose-dependent inhibition of cell growth | dose-dependent inhibition of cell growth |  | 
2 | KEFLHPSKVDLPR [SOR-C13, KEFLHPSKVDLPR] | significantly reduced their resorptive activity | inhibition of osteoclast activity; also recorded: dose-dependent decrease in bone resorption | decrease in TRAP enzyme activity relative to controls | inhibited osteoclast differentiation | dose-dependent inhibition of cell growth | dose-dependent inhibition of cell growth |  | 
3 | Soricidin: fifty-four amino acid paralytic peptide isolated from the submaxilary saliva gland of the Northern Short-tailed Shrew (Blarina brevicauda) (DCSQDCAACSILARPAELNTETCILECEGKLSSNDTEGGLCKEFLHPSKVDLPR; UniProt P0C2P6 1-54, looked up) |  |  |  |  |  |  | inhibited calcium uptake | caused paralysis
